The results in this text go back to PMC4554983 (Bioorganic & medicinal chemistry, 2015).

As usually defined, the MIC is the lowest concentration that inhibits growth of the organism. Low values mean a more susceptible organism, high ones a less susceptible organism.

Experiment [1] relates to Candida albicans (WTBF-50). Kind of experiment: Antifungal activity assay. It counts as cell-based.
In the next experiment the test system is C. albicans. Briefly: Time kill assays. The class given is cell-based, Candida albicans.
In experiment [2] the test system is Cryptococcus neoformans Cn18 (WTBF-106). Kind of experiment: Antifungal activity assay. It counts as cell-based. The note with it: MIC ratio versus P2.

≈ marks a conversion by molar mass, not a printed value. Bounds are passed on as bounds.

In experiment [1] (Candida albicans), `C[C@@H]1[C@H](O)[C@@H](C)/C=C/C=C/C=C/C=C/C=C/C=C/C=C/[C@H](O[C@@H]2O[C@H](C)[C@@H](O)[C@H](N)[C@@H]2O)C[C@@H]2O[C@](O)(C[C@@H](O)C[C@@H](O)[C@H](O)CC[C@@H](O)C[C@@H](O)CC(=O)O[C@H]1C)C[C@H](O)[C@H]2C(=O)O` [AMB, Amphotericin B, reference compound] returned an MIC of 0.125 µg/mL (≈ 0.135 µM).

Take `CC(=O)O.c1cc2cc(-c3ccc(-c4ccc5cc(C6=NCCCN6)oc5c4)cc3)[nH]c2cc1C1=NCCCN1` [Compound P34]: the “fungicidal activity relative to positive control” value with C. albicans (2× the MIC and 4× the MIC, versus AMB at 4× the MIC) is “comparable to that of AMB”.

Take `CC(=O)O.c1cc2cc(-c3ccc(-c4ccn5cc(C6=NCCCN6)nc5c4)cc3)[nH]c2cc1C1=NCCCN1` [Compound P33]: in experiment [1] (MIC ratio versus P35), the “fold more potent than P35 against Candida spp.” value is more than 10 fold.

Consider `O=C(O)C(F)(F)F.c1cc2cc(-c3ccc(-c4cc5ccc(C6=NCCCN6)cc5[nH]4)cc3)[nH]c2cc1C1=NCCCN1` [Compound P10], for which the “time to reduce viable cells below the limit of detection” value in the experiment with C. albicans (2× the MIC) is given as not above 8 h.

As for `CC1CNC(c2ccc3cc(-c4ccc(-c5cc6ccc(C7=NC(C)CN7)cc6[nH]5)cc4)[nH]c3c2)=N1.O=C(O)C(F)(F)F` (centres unmarked) [Compound P9], in experiment [2], the “fold more potent than P2 against Cryptococcus neoformans” value was 6 fold.
